Measurements: paper PMC10706087, “The Subtype Selectivity in Search of Potent Hypotensive Agents among 5,5-Dimethylhydantoin Derived α1-Adrenoceptors Antagonists” (International Journal of Molecular Sciences, 2023)
Counter-ions that a name gives are not always drawn. Like-named read-outs stand apart in the source and are kept apart here.

Tests used:
[1] = target: α1-adrenoceptors (α1-ARs), rat cerebral cortex; conditions: cited from earlier work
α1D- and α1A-AR subtype = system: α1D- and α1A-AR subtype; set-up: method as in PMID 21753885; conditions: cited from earlier work
[2] = system: arterial blood pressure of normotensive Wistar rats; test: Influence on blood pressure in normotensive anesthetized rats after i.v. administration; type: in vivo, rat; conditions: for Diastolic blood pressure / Systolic blood pressure: mean, n = 6
Method in brief: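 Normotensive rats were given thiopental (75 mg/kg) intraperitoneally as anesthesia. A heparinized saline-filled polyethylene tube was placed in the left carotid artery, and blood pressure was recorded with a PowerLab Apparatus. Compounds dissolved in ethyl alcohol 5% − kolliphor 5% − water 90% were injected intravenously at 1 mL/kg after 20 min of stabilization. Pressures were compared by two-way ANOVA with Sidak's post-hoc test.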

[3] = target: α1-adrenoceptors (α1-ARs), rat cerebral cortex; test: Radioligand binding assay with [3H]-prazosin, affinity for α1-ARs; conditions: three independent experiments in duplicates, read-out: α1-adrenoceptor affinity Ki
[4] = target: T1, human adrenergic receptor α1A (Homo sapiens, UniProt P35348); test: Intrinsic activity, aequorin luminescence functional assay at α1A-AR; type: cell-based; conditions: for α1A-AR Profile: agonist/antagonist profile; for IC50: cells expressing aequorin and human α1A, against phenylephrine, means of three independent experiments in duplicates; for Selectivity Ratio α1B/α1A: selectivity for α1A-AR (IC50(α1B-AR)/IC50(α1A-AR))
T1 sequence (P35348 1-466): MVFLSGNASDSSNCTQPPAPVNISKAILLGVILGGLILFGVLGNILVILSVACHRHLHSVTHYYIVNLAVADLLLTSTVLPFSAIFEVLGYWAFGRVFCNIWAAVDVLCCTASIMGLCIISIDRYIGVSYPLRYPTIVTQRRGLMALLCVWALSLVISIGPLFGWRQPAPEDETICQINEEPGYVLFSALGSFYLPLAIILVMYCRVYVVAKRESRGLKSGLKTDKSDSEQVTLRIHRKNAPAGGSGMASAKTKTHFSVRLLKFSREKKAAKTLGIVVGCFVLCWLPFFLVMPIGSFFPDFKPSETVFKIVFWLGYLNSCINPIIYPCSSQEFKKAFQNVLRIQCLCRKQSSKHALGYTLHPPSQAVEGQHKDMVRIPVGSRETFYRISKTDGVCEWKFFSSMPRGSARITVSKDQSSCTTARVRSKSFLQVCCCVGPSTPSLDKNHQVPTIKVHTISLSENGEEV

[5] = target: T2, human adrenergic receptor α1B (Homo sapiens, UniProt P35368); test: Intrinsic activity, aequorin luminescence functional assay at α1B-AR; type: cell-based; conditions: for α1B-AR Profile: agonist/antagonist profile; for IC50: cells expressing aequorin and human α1B, against phenylephrine, means of three independent experiments in duplicates; for Selectivity Ratio α1A/α1B: selectivity for α1B-AR (IC50(α1A-AR)/IC50(α1B-AR))
T2 sequence (P35368 1-520): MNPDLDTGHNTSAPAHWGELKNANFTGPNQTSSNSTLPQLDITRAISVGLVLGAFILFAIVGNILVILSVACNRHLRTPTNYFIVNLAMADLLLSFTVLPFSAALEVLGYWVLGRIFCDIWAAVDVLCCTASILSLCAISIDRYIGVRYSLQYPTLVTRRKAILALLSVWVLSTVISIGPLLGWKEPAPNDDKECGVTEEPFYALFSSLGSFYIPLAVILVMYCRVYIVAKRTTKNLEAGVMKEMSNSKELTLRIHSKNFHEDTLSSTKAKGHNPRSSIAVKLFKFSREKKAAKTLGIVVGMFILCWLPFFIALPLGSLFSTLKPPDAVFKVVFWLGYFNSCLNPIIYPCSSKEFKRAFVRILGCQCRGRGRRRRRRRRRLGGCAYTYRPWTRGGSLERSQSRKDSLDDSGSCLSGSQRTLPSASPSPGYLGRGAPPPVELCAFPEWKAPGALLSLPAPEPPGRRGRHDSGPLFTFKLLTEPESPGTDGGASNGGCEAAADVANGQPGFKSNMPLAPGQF

[6] = published previously, read-out: α1-adrenoceptor affinity Ki
[7] = 1.0 mg/kg i.v., 0 min (initial, before administration)
[8] = 2.0 mg/kg i.v., 0 min (initial, before administration)

Row | SMILES | Ki [1, 6] | Ki [3] | α1A-AR Profile [4] | IC50 [4] | Selectivity Ratio α1B/α1A [4] | Diastolic blood pressure [2, 8] | Systolic blood pressure [2, 8] | Diastolic blood pressure ([2]; 2.0 mg/kg i.v., 5 min) | Systolic blood pressure ([2]; 2.0 mg/kg i.v., 5 min) | Diastolic blood pressure ([2]; 2.0 mg/kg i.v., 10 min) | Systolic blood pressure ([2]; 2.0 mg/kg i.v., 10 min) | Diastolic blood pressure ([2]; 2.0 mg/kg i.v., 20 min) | Systolic blood pressure ([2]; 2.0 mg/kg i.v., 20 min) | Diastolic blood pressure ([2]; 2.0 mg/kg i.v., 30 min) | Systolic blood pressure ([2]; 2.0 mg/kg i.v., 30 min) | Diastolic blood pressure ([2]; 2.0 mg/kg i.v., 40 min) | Systolic blood pressure ([2]; 2.0 mg/kg i.v., 40 min) | Diastolic blood pressure ([2]; 2.0 mg/kg i.v., 50 min) | Systolic blood pressure ([2]; 2.0 mg/kg i.v., 50 min) | Diastolic blood pressure ([2]; 2.0 mg/kg i.v., 60 min) | also measured
1 | COc1ccccc1N1CCN(CCCCCN2C(=O)N(Cc3ccccc3)C(=O)C2(C)C)CC1 [PI] | – | – | – | – | – | – | – | – | – | – | – | – | – | – | – | – | – | – | – | – | Ki ([1]; lead structure, Figure 2, read-out: α1R Ki): 0.0426 µM
2 | COc1ccccc1N1CCN(CC(O)COc2cccc3ccccc23)CC1 (stereo not drawn) [naftopidil] | – | – | – | – | – | – | – | – | – | – | – | – | – | – | – | – | – | – | – | – | higher affinity for α1D- than for α1A-AR subtype (α1D- and α1A-AR subtype): 3 fold
3 | COc1ccccc1N1CCN(CCCNc2cc(=O)n(C)c(=O)n2C)CC1 [Urapidil, urapidil hydrochloride, reference compound] | 0.128 µM | – | – | – | – | – | – | – | – | – | – | – | – | – | – | – | – | – | – | – | Diastolic blood pressure [2, 7]: 93.0; Systolic blood pressure [2, 7]: 127.3; Diastolic blood pressure ([2]; 1.0 mg/kg i.v., 5 min): 77.5; Systolic blood pressure ([2]; 1.0 mg/kg i.v., 5 min): 111.3; Diastolic blood pressure ([2]; 1.0 mg/kg i.v., 10 min): 75.5; Systolic blood pressure ([2]; 1.0 mg/kg i.v., 10 min): 109.5; Diastolic blood pressure ([2]; 1.0 mg/kg i.v., 20 min): 76.0; Systolic blood pressure ([2]; 1.0 mg/kg i.v., 20 min): 110.2; Diastolic blood pressure ([2]; 1.0 mg/kg i.v., 30 min): 78.8; Systolic blood pressure ([2]; 1.0 mg/kg i.v., 30 min): 112.2; Diastolic blood pressure ([2]; 1.0 mg/kg i.v., 40 min): 79.2; Systolic blood pressure ([2]; 1.0 mg/kg i.v., 40 min): 112.7; Diastolic blood pressure ([2]; 1.0 mg/kg i.v., 50 min): 80.8; Systolic blood pressure ([2]; 1.0 mg/kg i.v., 50 min): 114.0; Diastolic blood pressure ([2]; 1.0 mg/kg i.v., 60 min): 81.2; Systolic blood pressure ([2]; 1.0 mg/kg i.v., 60 min): 115.0; lowest hypotensive (effective) dose ([2]; i.v., normotensive anesthetized rats): 1.0 mg/kg
4 | CC1(C)C(=O)N(Cc2ccc(Cl)cc2Cl)C(=O)N1CC(O)CN1CCN(c2ccccc2)CC1.Cl (stereo not drawn) [Compound 6, 3-(2,4-dichlorobenzyl)-1-(2-hydroxy-3-(4-phenylpiperazin-1-yl)propyl)-5,5-dimethylimidazolidine-2,4-dione hydrochloride] | – | 0.053 µM | Antagonist | 5.91 µM | 0.15 | 98.2 | 134.2 | 87.2 | 124.2 | 90.3 | 125.2 | 89.7 | 126.3 | 89.0 | 125.0 | 89.0 | 126.7 | 89.2 | 125.5 | 88.7 | Systolic blood pressure ([2]; 2.0 mg/kg i.v., 60 min): 125.8; melting point: 196 to 198 °C; α1B-AR Profile [5]: Antagonist; IC50 [5]: 0.905 µM; Selectivity Ratio α1A/α1B [5]: 6.53
5 | COc1cccc(N2CCN(CC(O)CN3C(=O)N(Cc4ccc(Cl)cc4Cl)C(=O)C3(C)C)CC2)c1.Cl (stereo not drawn) [Compound 14, 3-(2,4-dichlorobenzyl)-1-(2-hydroxy-3-(4-(3-methoxyphenyl)piperazin-1-yl)propyl)-5,5-dimethylimidazolidine-2,4-dione hydrochloride] | – | 0.289 µM | Antagonist | 1.22 µM | 1.12 | 100.8 | 132.5 | 100.3 | 132.3 | 100.7 | 132.0 | 96.0 | 129.3 | 96.0 | 127.7 | 97.3 | 125.8 | 94.3 | 124.5 | 92.0 | Systolic blood pressure ([2]; 2.0 mg/kg i.v., 60 min): 124.3; melting point: 177 to 179 °C; α1B-AR Profile [5]: Antagonist; IC50 [5]: 1.37 µM; Selectivity Ratio α1A/α1B [5]: 0.89
6 | COc1cc2nc(N3CCN(C(=O)c4ccco4)CC3)nc(N)c2cc1OC [Prazosin, prazosin hydrochloride] | 0.00024 µM | – | – | – | – | – | – | – | – | – | – | – | – | – | – | – | – | – | – | – | –
